Results as given in patent US7632870B2, “Composition based on substituted 1,3-diphenylprop-2-en-1-one derivatives, preparation and uses thereof” (Genfit, priority 2002, dated 2009).
Each block holds one compound with its values, some of them ahead of it.

Tests used:
LDL = assay: Protection against LDL oxidation by copper (conjugated diene formation); type: biochemical; settings: compound at 10^-4M
Method: LDL oxidation is an important alteration and plays a predominant role in the establishment and development of atherosclerosis (Jurgens, Hoff et al. 1987). […] Unless otherwise indicated, the reagents were from Sigma (St Quentin, France).
LDL were prepared according to the method described by Lebeau et al. (Lebeau, Furman et al. 2000).
The solutions of test compounds were prepared at 10^−2 M concentration in bicarbonate buffer (pH 9) and diluted in PBS to obtain final concentrations ranging from 0.1 to 100 μM for a total ethanol concentration of 1% (V/V).
Prior to oxidation, EDTA was removed from the LDL preparation by dialysis. Oxidation then took place at 30° C. by addition of 100 μl of 16.6 μM CuSO4 solution to 160 μL of LDL (125 μg protein/ml) and 20 μl of a test compound solution. The formation of dienes, the species under observation, was followed by measuring optical density at 234 nm in the samples treated with the compounds but in the presence or absence of copper. Optical density at 234 nm was measured every 10 minutes for 8 hours in a thermostated spectrophotometer (Tecan Ultra 380). The analyses were performed in triplicate. The compounds were considered to have antioxidant activity when they induced a longer lag phase and reduced the rate of oxidation and the amount of dienes formed in comparison with the control sample. […] FIGS. 1, 2 and 3 give an example of the results illustrating the antioxidant properties of compounds 2 and 5.

PPARα = target: T1, PPARα (Homo sapiens, UniProt Q07869); assay: PPARα/Gal4 transactivation system in RK13 cells (luciferase reporter); type: cell-based, rabbit; settings: 24 hours
T1 construct: expressed in transfected cells; host or cells: RK13 cells
T1 sequence (Q07869 239-466 limits assumed): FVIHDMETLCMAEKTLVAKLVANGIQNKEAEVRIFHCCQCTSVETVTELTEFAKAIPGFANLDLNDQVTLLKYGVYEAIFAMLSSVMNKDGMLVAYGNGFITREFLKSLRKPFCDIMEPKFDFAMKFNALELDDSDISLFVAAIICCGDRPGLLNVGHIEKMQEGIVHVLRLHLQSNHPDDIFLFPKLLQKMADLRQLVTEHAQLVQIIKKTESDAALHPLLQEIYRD
Method: RK13 cells were incubated with the different compounds at concentrations of 10, 30 and 100 μM or 1, 10 and 100 μM for 24 hours. The results are expressed as the induction factor (luminescent signal relative to untreated cells) after the different treatments.
PPAR activation was tested in vitro in RK13 fibroblast cell lines by measuring the transcriptional activity of chimeras composed of the DNA binding domain of the yeast gal4 transcription factor and the ligand binding domain of the different PPARs. These latter results were then confirmed in cell lines according to the following protocols:
RK13 cells were from ECACC (Porton Down, UK) and were grown in DMEM medium supplemented with 10% (V/N) fetal calf serum, 100 U/ml penicillin (Gibco, Paisley, UK) and 2 mM L-glutamine (Gibco, Paisley, UK). The culture medium was changed every two days. Cells were kept at 37° C. in a humidified 95% air/5% CO2 atmosphere.
The plasmids pG5TkpGL3, pRL-CMV, pGal4-hPPRAα, pGal4-hPPRAγ and pGal4-φ have been described by Raspe, Madsen et al. (1999). The pGal4-mPPRAα and pGal4-hPPRAγ constructs were obtained by cloning into the pGal4-φ vector of PCR-amplified DNA fragments corresponding to the DEF domains of the human PPARα and PPRAγ nuclear receptors.
[…] At the end of the experiment, the cells were lysed (Gibco, Paisley, UK) and luciferase activity was determined with a Dual-Luciferase™ Reporter Assay System kit (Promega, Madison, Wis., USA) according to the supplier's instructions as previously described (Raspe, Madsen et al. 1999).

[1] = test system: Apo E2/E2 transgenic mice; assay: Effects on triglyceride and cholesterol metabolism in vivo
Method: Apo E2/E2 transgenic mice were kept on a 12-hour light/dark cycle at a constant temperature of 20±3° C. After a 1 week acclimation, the mice were weighed and divided into groups of 6 animals selected so that body weight would be uniformly distributed. The test compounds were suspended in carboxymethylcellulose and administered by intragastric gavage at the indicated doses, once a day for 7 or 8 days. Animals had access to food and water ad libitum. At the end of the experiment the animals were weighed and sacrificed under anesthesia. Blood was collected on EDTA. Plasma was prepared by centrifugation at 3000 rpm for 20 minutes. Liver samples were taken and stored frozen in liquid nitrogen for subsequent analysis.
Serum lipid concentrations (total cholesterol and free cholesterol, triglycerides and phospholipids) were determined by a colorimetric assay (Boehringer, Mannheim, Germany) according to the supplier's instructions. Serum concentrations of apolipoproteins AI, AII and CIII were determined as previously described (Raspe et al. J. Lipid Res. 40, 2099-2110, 1999, Asset G et al., Lipids, 34, 39-44, 1999).

SMILES: CC(C)(Oc1ccc(C(=O)/C=C/c2cc(C(C)(C)C)c(O)c(C(C)(C)C)c2)c(O)c1)C(=O)O [Compound 2, 1-[2-hydroxy-4-carboxydimethylmethyloxyphenyl]-3-[3.5-ditertbutyl-4-hydroxyphenyl]prop-2-en-1-one]
lag phase of conjugated diene formation (LDL; FIG. 1-1, copper alone 111 minutes): more than 480 minutes
rate of conjugated diene formation (LDL; FIG. 1-2, copper alone 2): not measurable because too low
maximum amount of conjugated dienes formed (LDL; FIG. 1-3, copper alone 348): 54.4 nmol per mg of LDL
decrease in conjugated diene formation (LDL; FIG. 1-3, versus copper alone): 84%

SMILES: Cc1cc(/C=C/C(=O)c2ccc(Cl)cc2O)cc(C)c1OC(C)(C)C(=O)O [Compound 7, 1-[2-hydroxy-4-chlorophenyl]-3-[3,5-dimethyl-4-carboxydimethylmethyloxyphenyl]prop-2-en-1-one]
Induction factor (luminescent signal relative to untreated cells) (PPARα; 10 μM): 36.48
Induction factor (luminescent signal relative to untreated cells) (PPARα; 30 μM): 50.37
Induction factor (luminescent signal relative to untreated cells) (PPARα; 100 μM, listed as Cp7): 37.84
triglycerides in large sized lipoparticles (exclusion chromatography) ([1]; gavage 200 mg/kg for 7 days, FIG. 3-3): decreased
cholesterol in large sized lipoparticles (exclusion chromatography) ([1]; gavage 200 mg/kg for 7 days, FIG. 3-4): decreased

SMILES: CC(C)(Oc1ccc(C(=O)/C=C/c2ccc(Cl)cc2)c(O)c1)C(=O)O [Compound 18, 1-[2-hydroxy-4-carboxydimethylmethyloxyphenyl]-3-[4-chlorophenyil] prop-2-en-1-one]
lag phase of conjugated diene formation (LDL; FIG. 1-4, copper alone 178 minutes): 241 min
rate of conjugated diene formation (LDL; FIG. 1-5, copper alone 1.6): 1.4 nmol/min/mg of LDL
maximum amount of conjugated dienes formed (LDL; FIG. 1-6, copper alone 353): 305 nmol per mg of LDL

SMILES: Cc1cc(/C=C/C(=O)c2ccc(Br)cc2O)cc(C)c1OC(C)(C)C(=O)O [Compound 25, 1-[2-hydroxy-4-bromophenyl]-3-[3,5-dimethyl-4-carboxydimethylmethyloxyphenyl]prop-2-en-1-one]
Induction factor (luminescent signal relative to untreated cells) (PPARα; 1 μM): 13.48
Induction factor (luminescent signal relative to untreated cells) (PPARα; 10 μM): 21.03
Induction factor (luminescent signal relative to untreated cells) (PPARα; 100 μM): 7.01

SMILES: COc1cc(Cl)ccc1C(=O)/C=C/c1cc(C)c(OC(C)(C)C(=O)O)c(C)c1 [Compound 37, 1-[2-methyloxy-4-chlorophenyl]-3-[3,5-dimethyl-4-carboxydimethylmethyloxyphenyl]prop-2-en-1-one]
Induction factor (luminescent signal relative to untreated cells) (PPARα; 1 μM): 24.55
Induction factor (luminescent signal relative to untreated cells) (PPARα; 10 μM): 27
Induction factor (luminescent signal relative to untreated cells) (PPARα; 10 μM, listed as Cp37): 27.83
Induction factor (luminescent signal relative to untreated cells) (PPARα; 100 μM): 0.02

SMILES: CCCCCCCc1ccc(C(=O)/C=C/c2cc(C)c(OC(C)(C)C(=O)OC(C)(C)C)c(C)c2)cc1 [Compound 38, 1-[4-heptylphenyl]-3-[3,5-dimethyl-4-tertbutyloxycarbonyldimethylmethyloxyphenyl]prop-2-en-1-one]
Induction factor (luminescent signal relative to untreated cells) (PPARα; 1 μM): 14.70
Induction factor (luminescent signal relative to untreated cells) (PPARα; 10 μM): 22
Induction factor (luminescent signal relative to untreated cells) (PPARα; 10 μM, listed as Cp38): 22.22
Induction factor (luminescent signal relative to untreated cells) (PPARα; 100 μM): 0.311

SMILES: Cc1cc(/C=C/C(=O)c2ccc(Br)cc2)cc(C)c1OC(C)(C)C(=O)O [Compound 41, 1-[4-bromophenyl]-3-[3,5-dimethyl-4-carboxydimethylmethyloxyphenyl]prop-2-en-1-one]
Induction factor (luminescent signal relative to untreated cells) (PPARα; 1 μM): 34.61
Induction factor (luminescent signal relative to untreated cells) (PPARα; 10 μM): 31
Induction factor (luminescent signal relative to untreated cells) (PPARα; 10 μM, listed as Cp41): 31.18
Induction factor (luminescent signal relative to untreated cells) (PPARα; 100 μM): 3.39
triglycerides in large sized lipoparticles (exclusion chromatography) ([1]; 50 mg/kg/day for 8 days, FIG. 3-11): decrease
cholesterol in large sized lipoparticles (exclusion chromatography) ([1]; 50 mg/kg/day for 8 days, FIG. 3-12): decrease

Results, then the compound that gave them:

Induction factor (luminescent signal relative to untreated cells) (PPARα; 10 μM): 4
Induction factor (luminescent signal relative to untreated cells) (PPARα; 10 μM, listed as Cp4): 3.99
Induction factor (luminescent signal relative to untreated cells) (PPARα; 30 μM): 22
Induction factor (luminescent signal relative to untreated cells) (PPARα; 30 μM, listed as Cp4): 22.15
Induction factor (luminescent signal relative to untreated cells) (PPARα; 100 μM): 60
Induction factor (luminescent signal relative to untreated cells) (PPARα; 100 μM, listed as Cp4): 61.07
SMILES: CC(C)(Oc1ccc(/C=C/C(=O)c2ccccc2O)cc1)C(=O)O [Compound 4, 1-[2-hydroxyhenyl]-3-[4-carboxydimethylmethyloxyphenyl]pron-2-en-1-one]

Induction factor (luminescent signal relative to untreated cells) (PPARα; 10 μM): 0.62
Induction factor (luminescent signal relative to untreated cells) (PPARα; 30 μM): 1.27
Induction factor (luminescent signal relative to untreated cells) (PPARα; 100 μM): 10
Induction factor (luminescent signal relative to untreated cells) (PPARα; 100 μM, listed as Cp8): 9.98
SMILES: CC(C)(Oc1ccc(C(=O)/C=C/c2cc(Br)c(O)c(Br)c2)c(O)c1)C(=O)O [Compound 8, 1-[2-hydroxy-4-carboxydimethylmethyloxyphenyl]-3-[3.5-dibromo-4-hydroxyphenyl]prop-2-en-1-one]

Induction factor (luminescent signal relative to untreated cells) (PPARα; 1 μM): 1.20
Induction factor (luminescent signal relative to untreated cells) (PPARα; 10 μM): 1.39
Induction factor (luminescent signal relative to untreated cells) (PPARα; 100 μM, listed as Cp11): 10.19
SMILES: Cc1cc(/C=C/C(=O)c2ccccc2O)cc(C)c1OC(C)(C)C(=O)O [Compound 11, 1-[2-hydroxyphenyl]-3-[3,5-dimethyl-4-carboxydimethylmethyloxyphenyl]prop-2-en-1-one]

Induction factor (luminescent signal relative to untreated cells) (PPARα; 1 μM): 3.77
Induction factor (luminescent signal relative to untreated cells) (PPARα; 100 μM): 1.21
SMILES: COc1ccccc1C(=O)/C=C/c1cc(C)c(OC(C)(C)C(=O)O)c(C)c1 [Compound 31, 1-[2-methoxyphenyl]-3-[3,5-dimethyl-4-carboxydimethylmethyloxyphenyl]prop-2-en-1-one]
